From patent US4973576A, “Bisphophonic acid derivatives and pharmaceutical compositions containing the same” (Yamanouchi Pharmaceutical Co., Ltd., priority 1987, dated 1990)
Several values for one entry are separate records, joined by “and”; a condition that tells them apart may be missing. Equal values may be shown once.

Tests used:
[1] = system: hypercalcemia induced by administration of parathyroid hormone (PTH); assay: Inhibitory effect on hypercalcemia induced by PTH in rats (serum Ca++); format: in vivo, male Wistar rats; conditions: mean ± S.E.
Description: Rats of hypercalcemia induced by administration of parathyroid hormone (hereinafter referred to as "PTH") were used, and the decrement of the serum calcium amount by administration of the compound was measured.
30 μg/kg of human 1-34 PTH (manufactured by Peptide Laboratory) which was dissolved in a 0.1% BSA (bovine serum albumin)-containing physiological saline (content of the PTH is 6 μg/ml) was intravenously injected in an amount of 30 μg/kg (5 ml/kg as the solution) to 5-week male Wistar rats which had been fasting for 20 hours. Only 0.1% BSA-containing physiological saline was injected to the normal control group in the same manner. 45 minutes after the PTH injection, the rats were etherized and then subjected to celiotomy, whereby the blood was collected from the abdominal cava with a vacuum blood-collecting tube. The blood collected was immediately centrifuged by 3000 rpm, at 4° C. for 10 minutes to isolate the serum. The ionized calcium (Ca^++) concentration in the serum was immediately measured with a Ca^++ meter (Sera 250, manufactured by Horiba Manufacturing Co.).
The compounds of the present invention were dissolved using sodium hydroxide and hydrochloric acid, in physiological saline (pH 7.4), for subcutaneous administration, in such amounts that the dose amounted to 2 ml/kg, and for oral administration, in distilled water (pH 7.4) so that the dose amounted to 5 ml/kg. They were administered 24 or 72 hours before the PTH injection. A physiological saline or a distilled water was administered to the normal control group and the control group, in the same manner. Salmon calcitonin (SCT, manufactured by Armour Co.) was dissolved in physiological saline so that the dose amounted to 2 ml/kg, and then subcutaneously administered 30 minutes before the PTH injection.
The results for each group were expressed in terms of mean±S.E. (standard error) and comparison was made among the groups by testing by one-way analysis of variance. The significance level was taken at 5%.

adjuvant arthritis [2] = assay: Experiment (3)-II: prophylactic effect on adjuvant arthritis in rats; format: in vivo, male Lewis rats; conditions: po, 1 mg/kg once a day 21 days
Description: (§1) Specifically, for investigation of the anti-arthritic effect, experimental models of adjuvant arthritis which is resemble to rheumatoid arthritis in human were used in two test methods. In one method to test the therapeutic effect of the compounds, the compounds to be tested were administered to the animals already having the adjuvant arthritis. In the other method to test the prophylactic effect of the compounds, these were administered after the adjuvant administration, and the expression and progress of the resulting arthritis, if any, was observed.
0.05 ml of the suspension of dry dead bacilli of Mycobacterium butyricum as suspended in liquid paraffin in a proportion of 6 mg/ml was subcutaneously injected to male Lewis rats (6 to 7-week) in the left hind paw. After the adjuvant injection, the compound to be tested was administered to the rats once a day for 21 days. Next day after the last administration, the thickness of the both hind paws of the rats was measured.
(§2) For the Experiments (3)-I and (3)-II, the compounds of the present invention were dissolved, using sodium hydroxide and hydrochloric acid in physiological saline (pH 7.4), for subcutaneous administration, in such amount that the dose amounted to 2 ml/kg, and for oral administration, in distilled water (pH 7.4) so that the dose amounted to 5 ml/kg; and indometacin (as comparative drug) was suspended in 0.5% methyl cellulose solution so that the dose amounted to 5 ml/kg. Each rat was weighed at the first day of starting the administration of the compound to be tested and at the last day of the administration of the compound, and the difference of the weight there between (ΔB.W.) was obtained.
(§3) The results for each group were expressed in terms of mean ±S.E. (standard error) and comparison was made among the groups by testing by one-way analysis of variance. The significance level was taken at 5%.

adjuvant arthritis [3] = assay: Experiment (3)-I: therapeutic effect on adjuvant arthritis in rats; format: in vivo, male Lewis rats; conditions: po, 1 mg/kg once a day 14 days; 1 mg/kg
Description: as §1
0.1 ml of a suspension of dry dead cells of Mycobacterium butyricum as suspended in liquid paraffin in a proportion of 6 mg/ml was subcutaneously injected to male Lewis rats (7-week) in the tail. After 17 or 18 days, the thickness of the both hind paws was measured. One group comprising six rats in which the arthritis was noticeably observed was isolated. After the grouping day, the compound to be tested was subcutaneously or orally administered once a day for 14 days to the rats. Next day after the last administration, the thickness of the soles of the both hind legs was again measured.
as §2, §3

[4] = system: immobilization-induced atrophy of bone; assay: Inhibition of bone resorption: immobilization-induced (neurectomy) atrophy of bone in rats; format: in vivo, Wistar rats; conditions: sc, 1.0 mg/kg once a day 14 days
[5] = sc, 0.1 mg/kg, 72 hours before PTH injection
[6] = sc, 1.0 mg/kg, 72 hours before PTH injection
[7] = oral, 30 mg/kg, 72 hours before PTH injection
[8] = oral, 100 mg/kg, 72 hours before PTH injection
[9] = sc, 0.3 mg/kg, 72 hours before PTH injection

Compound	Serum Ca++ [1, 5] [m mole/liter]	Serum Ca++ [1, 6] [m mole/liter]	Serum Ca++ [1, 9] [m mole/liter]	further results
CC(C)CCc1cc(NC(P(=O)(O)O)P(=O)(O)O)no1 [Example 25]	1.39 ± 0.02	1.36 ± 0.02	–	–
CCCCc1cc(NC(P(=O)(O)O)P(=O)(O)O)no1 [Example 28, [(5-n-butyl-3-isoxazolyl)amino]methylene-bis(phosphonic acid)]	1.36 ± 0.01	–	1.18 ± 0.02	Serum Ca++ [1, 7]: 1.46 ± 0.02 m mole/liter; Serum Ca++ [1, 8]: 1.31 ± 0.04 m mole/liter
CC(C)=CCCc1cc(NC(P(=O)(O)O)P(=O)(O)O)no1 [Example 31, [[5-(4-methyl-3-ene)pentyl-3-isoxazolyl]amino]methylene-bis(phosphonic acid)]	1.20 ± 0.01	–	1.05 ± 0.03	–
O=P(O)(O)C(Nc1cc(/C=C/c2ccccc2)on1)P(=O)(O)O [Example 32]	1.41 ± 0.02	–	1.27 ± 0.02	–
COc1ccc2c(c1)c(CC(=O)O)c(C)n2C(=O)c1ccc(Cl)cc1 [Indometacin, reference compound]	–	–	–	ΔB.W. (adjuvant arthritis [2]): 261 ± 7 g; Thickness of Paw, Left (adjuvant arthritis [2]; adjuvant-injected paw): 1096 ± 41 × 0.01 mm; Thickness of Paw, Right (adjuvant arthritis [2]; opposite paw): 1028 ± 47 × 0.01 mm; Thickness of Paw (average of right and left paws) (adjuvant arthritis [3]): 956 ± 32 × 0.01 mm and 1044 ± 46 × 0.01 mm and 931 ± 26 × 0.01 mm; ΔB.W. (adjuvant arthritis [3]): 67 ± 4 g and 51 ± 4 g and 58.2 ± 1.9 g
CC(C)(C)c1cc(NC(P(=O)(O)O)P(=O)(O)O)no1 [Known Compound (note-1), [(5t-butyl-3-isoxazolyl)amino]methylenebis(phosphonic acid), reference compound]	–	1.43 ± 0.02	1.51 ± 0.03	–
CC(C)c1cc(NC(P(=O)(O)O)P(=O)(O)O)no1 [Known Compound (note-2), [(5isopropyl-3-isoxazolyl)amino]methylenebis(phosphonic acid), reference compound]	1.58 ± 0.00	1.39 ± 0.02	1.49 ± 0.01	–
CCc1cc(NC(P(=O)(O)O)P(=O)(O)O)no1 [Manufacture Example 2, [(5-ethyl-3-isoxazolyl)amino]methylene-bis(phosphonic acid)]	1.39 ± 0.02	–	1.22 ± 0.02	Difference of Bone Ash Content (b) ([4]; nontreated minus treated humerus ashed weight): 3.0 ± 0.7 mg; Difference of Bone Weight (a) ([4]; nontreated minus treated humerus dry weight): 4.8 ± 1.3 mg; Serum Ca++ [1, 7]: 1.46 ± 0.02 m mole/liter; Serum Ca++ [1, 8]: 1.16 ± 0.07 m mole/liter; Serum Ca++ ([1]; sc, 30 mg/kg, 24 hours before PTH injection): 1.41 ± 0.02 m mole/liter
Cc1conc1NC(P(=O)(O)O)P(=O)(O)O [Manufacture Example 3, [(4-methyl-3-isoxazolyl)amino]methylene-bis(phosphonic acid)]	–	1.23 ± 0.05	1.45 ± 0.01	–
